Legend:
[1] = MTT cytotoxicity test in AZ-AHR cells; type: cell-based; details: human
Method: (§1) Prior to gene reporter assays, we examined the cytotoxicity of tested compounds in AZ-AHR, AZ-GR and LS180 cell lines. For this purpose, the cells were incubated for 24 h with individual enantiomers of atorvastatin, fluvastatin and rosuvastatin at concentrations ranging from 100 pM to 100 μM. The vehicle was DMSO (0.1% v/v). After the treatment, a conventional MTT test was performed and the values of IC50 were calculated.
(§2) Fig 2 Cytotoxicity of statin enantiomers in human cancer cell lines. […] After the treatment, a conventional MTT test was performed and absorbance was measured at 540 nm. Treatments were performed in triplicates.

[2] = MTT cytotoxicity test in AZ-GR cells; type: cell-based; details: human, AZ-GR cells (HeLa-derived GR luciferase reporter cell line)
Method: as §1, §2

[3] = MTT cytotoxicity test in LS180 cells; type: cell-based; details: human, LS180 colon adenocarcinoma cells
Method: as §1, §2

[4] = target: T1, pregnane X receptor (PXR) (Homo sapiens, UniProt O75469); details: 100 μM concentration, agonist mode
T1 sequence (O75469 1-434): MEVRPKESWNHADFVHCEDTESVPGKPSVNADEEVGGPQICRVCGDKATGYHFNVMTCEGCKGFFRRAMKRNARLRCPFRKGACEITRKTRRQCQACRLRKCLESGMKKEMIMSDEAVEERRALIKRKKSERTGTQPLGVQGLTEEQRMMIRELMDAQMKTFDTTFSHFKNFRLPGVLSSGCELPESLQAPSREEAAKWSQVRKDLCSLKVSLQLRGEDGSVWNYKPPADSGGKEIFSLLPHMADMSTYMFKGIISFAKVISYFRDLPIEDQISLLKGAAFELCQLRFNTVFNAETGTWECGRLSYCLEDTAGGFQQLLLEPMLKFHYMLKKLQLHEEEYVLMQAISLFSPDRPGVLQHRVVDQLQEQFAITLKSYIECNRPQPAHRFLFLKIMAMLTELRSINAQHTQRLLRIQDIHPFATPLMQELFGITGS

CYP2C9 = tested on: CYP2C9; parameters: method as in PMID 8737761; details: ratio to (+)3R,5S-fluvastatin; cited from earlier work
[5] = parameters: method as in PMID 19033449, PMID 16480934; details: humans, ratio to (+)3R,5S-fluvastatin; cited from earlier work
[6] = target: T2, aryl hydrocarbon receptor (AhR) (Homo sapiens, UniProt P35869); test: cell-based
T2 sequence (P35869 11-848): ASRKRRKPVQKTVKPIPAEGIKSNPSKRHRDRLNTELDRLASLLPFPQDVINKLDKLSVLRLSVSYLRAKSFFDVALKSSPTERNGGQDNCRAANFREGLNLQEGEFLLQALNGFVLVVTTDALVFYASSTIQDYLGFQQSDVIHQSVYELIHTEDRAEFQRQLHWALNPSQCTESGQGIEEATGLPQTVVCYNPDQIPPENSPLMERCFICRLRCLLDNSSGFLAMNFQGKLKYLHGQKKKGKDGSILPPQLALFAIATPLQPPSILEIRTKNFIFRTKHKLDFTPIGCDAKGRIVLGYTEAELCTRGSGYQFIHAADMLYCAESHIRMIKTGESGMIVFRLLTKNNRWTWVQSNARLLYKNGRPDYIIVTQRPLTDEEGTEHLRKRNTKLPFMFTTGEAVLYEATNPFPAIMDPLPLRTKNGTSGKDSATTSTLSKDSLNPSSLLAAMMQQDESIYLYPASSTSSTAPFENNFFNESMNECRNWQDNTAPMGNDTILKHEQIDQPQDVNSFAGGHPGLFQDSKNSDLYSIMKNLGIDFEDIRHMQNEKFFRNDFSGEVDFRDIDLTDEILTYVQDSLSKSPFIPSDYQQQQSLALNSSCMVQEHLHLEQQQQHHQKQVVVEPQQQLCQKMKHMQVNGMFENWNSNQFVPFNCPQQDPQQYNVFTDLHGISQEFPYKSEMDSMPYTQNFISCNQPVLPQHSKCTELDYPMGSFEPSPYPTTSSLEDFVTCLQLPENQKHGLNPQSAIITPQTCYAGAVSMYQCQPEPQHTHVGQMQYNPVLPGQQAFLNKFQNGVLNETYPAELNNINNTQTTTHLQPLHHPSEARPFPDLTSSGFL
Method: (§3) A stably transfected gene reporter cell line AZ-AHR, derived from human hepatoma HepG2 cells transfected with a construct containing several AhR binding sites upstream of a luciferase reporter gene, was used for assessment of AhR transcriptional activity [20].
(§4) Transcriptional activity of AhR was assessed in human gene reporter cell line AZ-AHR incubated for 24 h with tested compounds.
(§5) AZ-AHR cells were seeded in 96-well plates and stabilized for 16 h and then incubated for 24 h with enantiopure forms of atorvastatin, rosuvastatin and fluvastatin in concentration ranging from 10^−10 M to 10^−4 M in the absence (agonist mode–upper panels) or presence (antagonist mode–lower panels) of dioxin (TCDD; 5 nM). The vehicle was DMSO (0.1% v/v). After the treatments, cells were lysed and luciferase activity was measured. Treatments were performed in triplicates. Data are expressed as a fold induction of luciferase activity over control cells (agonist mode) or as a percentage of maximal activation attained by TCDD (antagonist mode). The values of EC50 and IC50 from n independent cell passages were calculated where appropriate and the average values are indicated in plots. Representative gene reporter assays are shown.

[7] = target: T2, aryl hydrocarbon receptor (AhR); test: AhR gene reporter assay in AZ-AHR cells; details: 24 h
Method: as §3, §4, §5

`CC(C)n1c(C=CC(O)CC(O)CC(=O)O)c(-c2ccc(F)cc2)c2ccccc21` (stereo not drawn) [3S5R-fluvastatin, 3S5R- fluvastatin] showed an IC50 at 24 h [1] of over 100 µM, an IC50 at 24 h [2] of over 100 µM and an IC50 at 24 h [3] of over 100 µM. For the same compound, the “efficacy: average induction of PXR luciferase activity” value [4] was “approx. 5 fold”, the “Ki values of CYP2C9 inhibition compared to (+)3R,5S-fluvastatin” value (CYP2C9) was “four to five times higher” and the “AUC value compared to (+)3R,5S-fluvastatin” value [5] was 1.8 times. The EC50 [6] was 14.4 ± 4.2 µM, the IC50 ([7]; AhR antagonist IC50, antagonist mode, in presence of TCDD 5 nM) was over 100 µM and the “effect on AhR-dependent luciferase activity (agonist mode), in words” value ([7]; agonist mode) was “slightly increased luciferase activity”.

Reference: article PMC4569258
